Laboratory results taken from patent publication US20140039044A1, “Hydroxylated Polymethoxyflavone Compositions” (WLLGEN, INC., priority 2006, published 2014).

Columns and labels:
Type in all cases: cell-based, human
[1] = system: AGS cells; assay: Apoptotic ratio by propidium iodide flow cytometry (AC50); conditions: Homo sapiens; AGS cells; read-out: Apoptosis-inducing AC50
Protocol: (§1) The human cancer cells (2×10^5) were cultured in 60-mm Petri dishes and incubated for 24 h. After treated with test compounds for 24 h, the cells were then harvested, washed with PBS resuspended in 200 μL of PBS, and fixed in 800 μL of iced 100% ethanol at −20° C. After being left to stand overnight, the cell pellets were collected by centrifugation, resuspended in 1 mL of hypotonic buffer (0.5% Triton X-100 in PBS and 0.5 μg/mL RNase) and incubated at 37° C. for 30 min. Next, 1 mL of propidium iodide solution (50 μg/mL) was added, and the mixture was allowed to stand on ice for 30 min. Fluorescence emitted from the propidium iodide-DNA complex was quantitated after excitation of the fluorescent dye by FACScan cytometry (Becton Dickinson, San Jose, Calif.).
(§2) 1 N PMF and 6 N PMF compositions containing hydroxylated PMFs, prepared as described in Section 8.3 above, 70% PMF OPE and 5,6,7,8,3′,4′-hexamethoxyflavone (nobiletin) were tested for antiproliferative activity and apoptosis-inducing activity in HL-60, AGS and COLO205 cells as described in Section 8.4 above. Antiproliferative and apoptosis-inducing activities were derived as IC50 values and AC50, values, respectively, where AC50 is the concentration required for 50% apoptosis.
(§3) The PMF compounds were assayed in vitro for cell growth inhibition and for their ability to induce apoptosis in various human cancer cells, including HL-60, AGS, COLO 205, and HT-29 cells, using methods described in Section 8.4 above. Antiproliferative (IC50) and apoptosis-inducing activity (AC50) of PMFs in the HL-60, AGS, COLO 205, and HT-29 cells are reported in Table 9, where *P<0.05, **P<0.01 and ***P<0.001 indicate statistically significant differences from the control group.

[2] = system: COLO205 cells; assay: as above; conditions: Homo sapiens, COLO 205; COLO205 cells; read-out: Apoptosis-inducing AC50
Protocol: as §1, §2, §3

[3] = system: HL-60 cells; assay: as above; conditions: Homo sapiens; HL-60 cells; read-out: Apoptosis-inducing AC50
Protocol: as §1, §2, §3

[4] = system: AGS cells; assay: Cell cycle distribution by flow cytometry; conditions: 24 h, Table 11
Protocol: as §1
(§4) The effects of the hydrolyzed PMF-enriched compositions, nobiletin and 70% PMF OPE on cell cycle distribution were studied, following the procedures described in Section 8.4. Results for cell cycle distribution in HL-60 cells, COLO205 cells and AGS cells are provided in Table 5, Table 6 and Table 7, respectively. […] In HL-60 cells, G2/M arrest predominated in cells treated with 6N PMF concentrations ≧5 μM and with 1N PMF concentrations ≧25 μM.
(§5) Compounds A-K were evaluated in terms of their effects in arresting cell cycle progression by observing cell cycle phase distribution in cells treated with the compounds. Cells were treated with 5, 10, 25, 50, and 100 μM of one of compound A-K or DMSO (control) for 24 h and subjected to flow cytometric analysis after staining their DNA, as described above.
(§6) Similar cell cycle phase distribution studies were performed in AGS, COLO205, and HT-29 cells in response to individual PMFs, with results reported in Tables 11, 12 and 13, respectively.

[5] = system: COLO205 cells; assay: Cell cycle distribution by flow cytometry; conditions: COLO205 cells, 24 h, Table 12
Protocol: as §1, §4, §5, §6

[6] = system: HT-29 cells; assay: Cell cycle distribution by flow cytometry; conditions: 24 h
Protocol: as §1, §5, §6

[7] = system: HL-60 cells; assay: Cell cycle distribution by flow cytometry; conditions: 24 h, Table 10
Protocol: as §1, §4, §5

SMILES: COc1ccc(-c2cc(=O)c3c(O)c(OC)c(OC)c(OC)c3o2)cc1OC [J, 5-hydroxy-6,7,8,3′,4′-pentamethoxyflavone]
- AC50 [1]: > 100 µM
- AC50 [2]: > 100 µM
- AC50 [3]: > 100 µM
- Cell Cycle Distribution G0/G1 ([4]; 5 μM): 58.65 ± 1.77
- Cell Cycle Distribution G2/M ([4]; 5 μM): 13.51 ± 1.20
- Cell Cycle Distribution S ([4]; 5 μM): 27.84 ± 0.56
- Cell Cycle Distribution G0/G1 ([4]; 10 μM): 57.07 ± 1.02
- Cell Cycle Distribution G2/M ([4]; 10 μM): 13.84 ± 0.52
- Cell Cycle Distribution S ([4]; 10 μM): 29.09 ± 1.54
- Cell Cycle Distribution G0/G1 ([4]; 25 μM): 58.84 ± 4.84
- Cell Cycle Distribution G2/M ([4]; 25 μM): 14.00 ± 4.20
- Cell Cycle Distribution S ([4]; 25 μM): 27.17 ± 0.64
- Cell Cycle Distribution G0/G1 ([4]; 50 μM): 52.82 ± 3.22
- Cell Cycle Distribution G2/M ([4]; 50 μM): 15.74 ± 0.11
- Cell Cycle Distribution S ([4]; 50 μM): 31.45 ± 3.31
- Cell Cycle Distribution G0/G1 ([4]; 100 μM): 58.11 ± 1.11
- Cell Cycle Distribution G2/M ([4]; 100 μM): 12.71 ± 0.25
- Cell Cycle Distribution S ([4]; 100 μM): 29.24 ± 1.28
- Cell Cycle Distribution G0/G1 ([5]; 5 μM): 56.75 ± 1.52
- Cell Cycle Distribution G2/M ([5]; 5 μM): 7.41 ± 0.30
- Cell Cycle Distribution S ([5]; 5 μM): 35.85 ± 1.22
- Cell Cycle Distribution G0/G1 ([5]; 10 μM): 59.63 ± 0.88
- Cell Cycle Distribution G2/M ([5]; 10 μM): 7.07 ± 0.86
- Cell Cycle Distribution S ([5]; 10 μM): 31.99 ± 1.85
- Cell Cycle Distribution G0/G1 ([5]; 25 μM): 63.97 ± 0.56
- Cell Cycle Distribution G2/M ([5]; 25 μM): 6.38 ± 1.05
- Cell Cycle Distribution S ([5]; 25 μM): 29.65 ± 1.61
- Cell Cycle Distribution G0/G1 ([5]; 50 μM): 64.90 ± 1.44
- Cell Cycle Distribution G2/M ([5]; 50 μM): 6.41 ± 0.13
- Cell Cycle Distribution S ([5]; 50 μM): 28.69 ± 1.57
- Cell Cycle Distribution G0/G1 ([5]; 100 μM): 62.39 ± 2.98
- Cell Cycle Distribution G2/M ([5]; 100 μM): 7.05 ± 0.13
- Cell Cycle Distribution S ([5]; 100 μM): 30.57 ± 2.84
- Cell Cycle Distribution G0/G1 ([6]; 5 μM): 64.81 ± 0.41
- Cell Cycle Distribution G2/M ([6]; 5 μM): 9.52 ± 0.05
- Cell Cycle Distribution S ([6]; 5 μM): 25.68 ± 0.46
- Cell Cycle Distribution G0/G1 ([6]; 10 μM): 62.87 ± 0.40
- Cell Cycle Distribution G2/M ([6]; 10 μM): 9.02 ± 0.16
- Cell Cycle Distribution S ([6]; 10 μM): 28.11 ± 0.57
- Cell Cycle Distribution G0/G1 ([6]; 25 μM): 62.04 ± 1.24
- Cell Cycle Distribution G2/M ([6]; 25 μM): 8.46 ± 0.09
- Cell Cycle Distribution S ([6]; 25 μM): 29.51 ± 1.15
- Cell Cycle Distribution G0/G1 ([6]; 50 μM): 60.39 ± 0.28
- Cell Cycle Distribution G2/M ([6]; 50 μM): 9.93 ± 0.06
- Cell Cycle Distribution S ([6]; 50 μM): 29.55 ± 0.52
- Cell Cycle Distribution G0/G1 ([6]; 100 μM): 62.44 ± 1.00
- Cell Cycle Distribution G2/M ([6]; 100 μM): 7.89 ± 0.69
- Cell Cycle Distribution S ([6]; 100 μM): 29.67 ± 1.68
- Cell Cycle Distribution G0/G1 ([7]; 5 μM): 53.10 ± 0.46
- Cell Cycle Distribution G2/M ([7]; 5 μM): 7.94 ± 0.06
- Cell Cycle Distribution S ([7]; 5 μM): 38.96 ± 0.51
- Cell Cycle Distribution G0/G1 ([7]; 10 μM): 51.74 ± 1.57
- Cell Cycle Distribution G2/M ([7]; 10 μM): 9.06 ± 0.54
- Cell Cycle Distribution S ([7]; 10 μM): 39.20 ± 2.10
- Cell Cycle Distribution G0/G1 ([7]; 25 μM): 51.30 ± 1.68
- Cell Cycle Distribution G2/M ([7]; 25 μM): 8.20 ± 1.19
- Cell Cycle Distribution S ([7]; 25 μM): 40.50 ± 2.87
- Cell Cycle Distribution G0/G1 ([7]; 50 μM): 49.22 ± 0.13
- Cell Cycle Distribution G2/M ([7]; 50 μM): 7.93 ± 0.36
- Cell Cycle Distribution S ([7]; 50 μM): 42.86 ± 0.48
- Cell Cycle Distribution G0/G1 ([7]; 100 μM): 51.29 ± 0.74
- Cell Cycle Distribution G2/M ([7]; 100 μM): 7.45 ± 0.83
- Cell Cycle Distribution S ([7]; 100 μM): 41.27 ± 0.09
